Holding throughout (experiment): NCI anticancer screen, dose series, 48 h
The test system of test [1] is A498 renal.
Test [2] relates to EKVX NSCLC.
The test system of test [3] is HOP-62 NSCLC.
Test [4] deals with MALME-3M melanoma.
In test [5] the test system is OVCAR-3 ovarian.
Test [6] relates to PC-3 prostate.
For test [7], the system named is SK-MEL-2 melanoma.
For test [8], the system named is SN12C renal.
In test [9] the test system is SW-620 colon.
Test [10] relates to U251 CNS.

Data on 19 molecules can be found in PubChem BioAssay (NCI).

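How tested: cells in 96-well plates exposed to compound for 48 hours at five concentrations. GI50: concentration for 50% inhibition of growth. Definition used: TGI = concentration required for complete inhibition of growth.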 Where only a bound is given, the exact number is not on record here.

As for `O=C(NN1C(=O)CSC12CCCC2)C(O)c1ccccc1` (centres undefined), the GI50 in [1], in [2], in [3], in test [4], in test [5] and in test [6] was greater than 100 µM each time. Further, the GI50 in test [7], in [8], in test [9] and in test [10] was greater than 100 µM throughout. Further, the TGI in test [1], in test [2], in test [3], in test [4], in [5] and in [6] was greater than 100 µM in each case. Moreover, the TGI in [7], in test [8], in test [9] and in test [10] was greater than 100 µM throughout.

`COc1cc2ncn(-c3cc(OCc4ccccc4C(F)(F)F)c(C(C)=O)s3)c2cc1OC`: the GI50 in [1] is 4.1 µM; in [2] it was greater than 25 µM; in test [3], greater than 25 µM; in test [4], greater than 16.8 µM; in test [5] it was greater than 25 µM; in [6], greater than 25 µM. Further, the GI50 is greater than 25 µM in test [7], greater than 21.7 µM in test [8], greater than 25 µM in [9] and greater than 25 µM in test [10]. Also, the TGI in [1] is 17.2 µM; in test [2], greater than 25 µM; in [3], greater than 25 µM; in test [4] it was greater than 25 µM; in [5], greater than 25 µM; in test [6], greater than 25 µM. Moreover, the TGI in [7], in test [8], in test [9] and in [10] was greater than 25 µM each time.

Regarding `Cc1nnc(-c2ccc(C)c(-c3ccc(C(=O)NCc4ccc(Cl)cc4)cc3)c2)o1`, the GI50 was 7.03 µM in [1]; 7.02 µM in [2]; 14.7 µM in test [3]; 6.15 µM in test [4]; 11.6 µM in test [5]; 8.82 µM in test [6]. In addition, the GI50 in [7] was 12.7 µM; in [8], greater than 18 µM; in test [9], greater than 25 µM; in test [10], greater than 25 µM. Also, the TGI is greater than 25 µM in test [1]; greater than 25 µM in test [2]; greater than 25 µM in test [3]; 24.9 µM in test [4]; greater than 25 µM in test [5]; greater than 25 µM in test [6]. Moreover, the TGI in test [7], in test [8], in [9] and in test [10] was greater than 25 µM in each case.

For the molecule `C=C1C(=O)OC2CC3(C)CCCC(C)C3=CC12` (centres undefined), the TGI was determined as 18.7 µM in test [1]; 24.3 µM in [2]; 16.7 µM in test [4]; 39.2 µM in test [6]; 28.5 µM in test [7]; 12.2 µM in [8]. Further, the TGI turned out to be 6.13 µM in test [9] and 22.2 µM in test [10].

Turning to `CC(O[Si](c1ccccc1)(c1ccccc1)C(C)(C)C)[C@H](NC(=O)OC(C)(C)C)C(=O)O` (some centres undefined), the TGI in test [1] is greater than 100 µM; in test [2], greater than 100 µM; in test [3] it was greater than 100 µM; in test [4], greater than 100 µM; in test [6] it was 56.8 µM; in test [9] it was greater than 100 µM. This molecule displayed a TGI in test [10] greater than 100 µM.

Consider `COc1ccc(CNc2cnc3cc(N)cc(N)c3n2)cc1`, for which the GI50 in [2] is 14.4 µM; in test [3], 35.9 µM; in test [5] it was 24.5 µM; in [6], 34.2 µM; in test [7] it was 23.9 µM; in test [8], 18.4 µM. Besides, the values for the GI50 in test [9] and in test [10] were 23.5 µM and 17.2 µM, respectively. Besides, the TGI in [2] is 31.1 µM; in [3] it was greater than 100 µM; in [5], greater than 100 µM; in [6] it was greater than 100 µM; in test [7], 76.3 µM; in test [8] it was 32.9 µM. In addition, the TGI worked out at 50.4 µM in test [9] and 32.5 µM in test [10].

For `CC(C)(C)NC/C(=C\c1ccccc1)C(=O)c1ccccc1`, the GI50 is 1.8 µM in [1]; 3.29 µM in test [2]; 3.44 µM in test [3]; 2.04 µM in test [4]; 1.19 µM in test [5]; 3.44 µM in test [6]. The GI50 in [7] is 2.01 µM; in test [8] it was 1.95 µM; in test [9], 1.22 µM; in test [10], 2.3 µM. In addition, the TGI in test [1] came out at 3.64 µM; in test [2] it was 13.6 µM; in test [3], 11.4 µM; in [4], 4.88 µM; in test [5] it was 3.19 µM; in test [6], 13 µM. Besides, the TGI in test [7] came out at 5.02 µM; in test [8], 6.34 µM; in [9], 3.5 µM; in test [10], 6.41 µM.

Turning to `COc1ccc2c(c1)N(CCO)C1=C(C(=O)OC1)C2c1ccccc1` (centres undefined), the GI50 in test [1] was 0.841 µM; in [2] it was 2.39 µM; in [3], 2.18 µM; in test [5], 1.18 µM; in test [6] it was 1.75 µM; in test [7] it was 1.61 µM. Besides, the GI50 in test [8] was 3.7 µM; in test [9], 1.64 µM; in test [10], 1.81 µM. Moreover, the TGI in [1] was 3.11 µM; in test [2] it was greater than 50 µM; in test [3], greater than 50 µM; in [5] it was 2.47 µM; in [6], greater than 50 µM; in test [7], 4.74 µM. Further, the TGI in test [8], in [9] and in test [10] was greater than 50 µM each time.

With `CCCN1C(=O)/C(=C/c2ccc(O)cc2)SC1=Nc1ccc(OC)cc1`, the GI50 is 9.61 µM in test [1]; 12.3 µM in test [2]; 28 µM in test [3]; 17.3 µM in [5]; 14 µM in test [6]; 37.1 µM in test [7]. Also, the GI50 was 16.8 µM in test [8], 18 µM in test [9] and 12.5 µM in test [10]. Also, the TGI is 22.7 µM in test [1]; 27.9 µM in test [2]; 80 µM in test [3]; 42.8 µM in [5]; 31.7 µM in [6]; greater than 100 µM in test [7]. For the same molecule, the TGI amounted to 34.5 µM in test [8], 48.3 µM in [9] and 26 µM in [10].

Turning to `CO[C@@H]1[C@H]2[C@@H](C)c3ccoc3C[C@@H]2[C@@]2(C)CC[C@H](OC(=O)c3ccccc3)[C@](C)(C(=O)O)[C@]2(O)[C@@H]1OC(=O)c1ccccc1`, the GI50 in test [1] was 0.941 µM; in test [2], 11.1 µM; in test [5], 5.17 µM; in test [6] it was 16.4 µM; in [7] it was 24.1 µM; in test [8] it was 7.11 µM. The GI50 in test [9] is 9.3 µM; in [10], 5.87 µM. Moreover, the TGI was 7.67 µM in test [1]; 45.6 µM in [2]; 15.9 µM in [5]; greater than 50 µM in test [6]; greater than 50 µM in test [7]; 17 µM in test [8]. Besides, the TGI turned out to be 20 µM in test [9] and 12 µM in [10].

Regarding `O=C(NNC(=S)Nc1ccccc1)c1ccccn1`, the GI50 in [1] is 4.55 µM; in test [3] it was 5.52 µM; in [5], 6.83 µM; in test [6], 2.87 µM; in test [7], 9.74 µM; in test [8], 2.99 µM. For the same molecule, the GI50 in test [9] was 4.54 µM; in test [10] it was 1.49 µM. Also, the TGI in [1], in test [3], in [5], in test [6], in test [7] and in test [8] was greater than 100 µM each time. Also, the TGI in test [9] and in [10] was greater than 100 µM in each case.

As for `COc1ccc(-c2nc(-c3cnccn3)n(COCCO)n2)cc1`, the TGI in [3], in [5], in [6], in test [8], in test [9] and in test [10] was greater than 100 µM throughout.

Consider `CC[C@@H](C)Nc1cc(C(=O)NC2CC3CCC(C2)N3c2ccc(C(=O)C3CC3)cn2)c(C)cc1C(N)=O` (some centres undefined), for which the GI50 in test [1] is 0.103 µM; in test [3] it was 0.0598 µM; in test [4], 0.0383 µM; in [5], 0.0672 µM; in test [6], 0.0469 µM; in test [7] it was 0.0661 µM. Moreover, the GI50 in [8] is 0.052 µM; in [9] it was 0.0323 µM; in [10], 0.0669 µM. Further, the TGI was greater than 100 µM in test [1]; greater than 100 µM in [3]; greater than 75.5 µM in [4]; greater than 88.1 µM in [5]; greater than 100 µM in [6]; 19 µM in test [7]. The TGI in test [8], in test [9] and in test [10] was greater than 100 µM throughout.

Consider `COC(=O)C1=C(O)[C@H](C(=O)OC)[C@]2(O)[C@@H](C(=O)OC)[C@H]1C[C@@H](c1ccc(OC(=O)/C=C/c3ccco3)cc1)[C@@H]2C(=O)OC`, for which the GI50 in test [2] was 21.9 µM; in test [3], 15.7 µM; in test [5], 27.6 µM; in test [6], 21.5 µM; in test [8], 22.4 µM; in test [9], 36.3 µM. Moreover, in [10], the GI50 was 10.3 µM. Also, the TGI in [2] was 49.1 µM; in test [3] it was 30.5 µM; in test [5], 82.5 µM; in test [6], 88.3 µM; in test [8] it was 52.3 µM; in test [9], greater than 100 µM. The molecule further showed a TGI in test [10] of 23.8 µM.

On to `C=C1NC(=O)C(CC(C(=O)C(=O)Nc2c(C)cccc2C(C)(C)C)C(=O)c2ccc3ccccc3c2)C(=O)N1` (centres undefined), for which the TGI in test [1], in test [5], in [6], in test [7], in test [8] and in test [9] was greater than 100 µM in each case. Also, the TGI in test [10] is greater than 100 µM.

For `CC(=O)O[C@H]1C(=O)[C@@]2(C)[C@H]([C@H](OC(=O)c3ccccc3)[C@@]3(O)C[C@H](O)C(C)=C1C3(C)C)[C@]1(OC(C)=O)CO[C@@H]1C[C@@H]2O`, the TGI in [2], in [3], in test [4], in test [5], in test [6] and in test [7] was greater than 100 µM throughout. The TGI in test [8], in [9] and in test [10] was greater than 100 µM throughout.

With `CCC[CH2][Sn]([CH2]CCC)([O]C(=O)c1cc(F)cc(F)c1)[O][Sn]([CH2]CCC)([CH2]CCC)[O]C(=O)c1cc(F)cc(F)c1`, the GI50 is 1.43 µM in test [1]; 1.31 µM in [2]; 5 µM in [3]; 0.889 µM in [4]; 1.52 µM in test [5]; 1.02 µM in test [7]. The GI50 in test [8] was 1.41 µM; in test [9], 0.626 µM; in test [10], 1.08 µM. Besides, the TGI in [1] is 2.83 µM; in [2], 2.59 µM; in test [3], 14.3 µM; in test [4], 2.18 µM; in [5] it was 2.86 µM; in [7], 2.2 µM. Moreover, the TGI in test [8] came to 2.76 µM; in test [9], 1.92 µM; in test [10] it was 2.28 µM.

As for `O=C1[C@H](Cl)[C@H]2c3cc4ccccc4nc3Oc3ccccc3N12`, the TGI in test [1], in test [2], in [3], in test [4], in test [5] and in [7] was greater than 100 µM throughout. The TGI in test [8], in [9] and in [10] was greater than 100 µM each time.

`CC(=O)ON(C(C)=O)C1C(COC(c2ccccc2)(c2ccccc2)c2ccccc2)OC2OC3(CCCC3)OC21` (centres undefined): the TGI in [1], in test [2], in [3], in test [4], in [5] and in test [7] was greater than 100 µM throughout. Besides, the TGI in test [8], in test [9] and in test [10] was greater than 100 µM throughout.
